Laboratory results reported in patent US8409619B2, “Oral drug delivery system for azole, moxifloxacin and rifampicin” (priority 2008, dated 2013).
Read-outs that look alike come from different tables or passages of the source.

Tests used:
M. tuberculosis H37Rv = assay: Experimental infection and chemotherapy (murine tuberculosis, cfu in lungs and spleen); format: in vivo; details: for Log10 cfu Lung / Log10 cfu Spleen: mice infected i.v. with M. tuberculosis H37Rv, eight weeks oral chemotherapy, sacrificed day 62, mean ± S.D.; for reduction of bacterial burden in organs / cfu reduction from lungs and spleen as compared to untreated controls: mice, eight weeks of chemotherapy; for cfu reduction from lungs and spleen as compared to untreated controls: free form daily/twice daily or encapsulated form weekly
[1] = not given; remark: listed apart in the source

| Structure (SMILES) | Log10 cfu Lung (M. tuberculosis H37Rv) [Log10 cfu] | Log10 cfu Spleen (M. tuberculosis H37Rv) [Log10 cfu] | reduction of bacterial burden in organs (M. tuberculosis H37Rv) | cfu reduction from lungs and spleen as compared to untreated controls (M. tuberculosis H37Rv) | time up to which drug was detectable in plasma (mouse, in vivo, po) [h] | time up to which drug was detected in organs ([1]; mouse, in vivo, po) | time up to which drug was detectable in plasma (oral free drug, mice) | time up to which drug was detected in organs ([1]; oral free drug, mice) [h] |
| --- | --- | --- | --- | --- | --- | --- | --- | --- |
| Clc1ccc(COC(Cn2ccnc2)c2ccc(Cl)cc2Cl)cc1 (stereo not drawn) [Free econazole, econazole] | 4.87 ± 0.040 | 4.89 ± 0.020 | about 2 log cfu | approximately 2 Log10 cfu | 3 to 4 | up to 12 h |  |  |
| COc1c(N2C[C@@H]3CCCN[C@@H]3C2)c(F)cc2c(=O)c(C(=O)O)cn(C3CC3)c12 [Free moxifloxacin, moxifloxacin] | 4.96 ± 0.013 | 4.96 ± 0.013 | about 2 log cfu | approximately 2 Log10 cfu |  |  | up to 12 h | ≤ 24 |
